Results: patent US5260298A, “Imidazatriazoloquinazoline compounds and their use” (Novo Nordisk A/S, priority 1991, dated 1993)

Tested on: benzodiazepine receptors
Experiment: in vivo displacement of 3H-flunitrazepam binding from benzodiazepine receptors in a living brain
Details: dose which reduces specific binding of 3H-flunitrazepam to benzodiazepine receptors in a living brain to 50% of the control value
From the text: The pharmaceutical properties of the compounds of the invention can be illustrated by determining their capability for displacing radioactive labelled flunitrazepam from benzodiazepine receptors.
The displacement activity of the compounds of the invention may be found by determining the ED50 value. The ED50 value represents the dose (mg/kg) of a test substance which causes the specific binding of ^3 H-flunitrazepam to benzodiazepine receptors in a living brain to be reduced to 50% of the control value.
Such an in vivo test is carried out as described in U.S. Pat. No. 4,774,245.

SMILES	ED50 [mg/kg]
c1ccc2c(c1)c1ncnn1c1c(-c3nc(C4CC4)no3)ncn21 [Compound 3, 5-(3-cyclopropyl-1,2,4-oxadiazol-5-yl)-imidazo[1,5-a]-[1,2,4]triazolo[1,5-c]quinazoline]	0.16
Clc1cccc2c1c1ncnn1c1c(-c3nc(C4CC4)no3)ncn21 [Compound 5, 12-chloro-5-(3-cyclopropyl-1,2,4-oxadiazol-5-yl)-imidazo[1,5-a][1,2,4]triazolo[1,5-c]quinazoline]	0.30
